Source: patent US11236122B2, “Triterpene amine derivatives” (DFH THERAPEUTICS, priority 2018, dated 2022)
Where a name gives a salt, the structure may show the parent alone.

Columns and labels:
[1] = Cytotoxicity assay CellTiter-Blue, MT-4; format: cell-based; settings: human; MT-4 cells, 4 to 8 days; mean ± SEM, three experiments
Method: (§1) Cytotoxicity assays. Cytotoxicity was measured with CellTiter-Blue® Cell Viability Assay according to the manufacturer's protocol (Promega). Two cell lines, MT-4 and HeLa, were used in this assay. Cells were incubated with serial dilution of compounds at 37° C. for 4 to 8 days and subjected to CellTiter-Blue Reagent. The fluorescent signal was measured at 560 nm Ex/590 nm Em by a plate reader (TECAN, Infinite® M1000 PRO). The 50% cytotoxic concentrations (CC50s) were defined as compound concentrations at which the fluorescent signals were reduced by 50%/relative to the no-inhibitor (DMSO only) controls using GraphPad Prism 6 software and are reported in Table 1.

[2] = test system: WT pNL4-3 in MT-4 cells; assay: Antiviral assay in MT-4 cells (RT readout), WT NL4-3; format: cell-based, HIV-1; settings: Human immunodeficiency virus 1, NL43, MT4, 96 h, read-out: Antiviral Assay IC50 (nM) NL4-3
Method: (§2) Cell culture, plasmids and transfections. The MT-4 T-cell line was maintained in RPMI-1640 medium supplemented with 10% (vol/vol) fetal bovine serum (FBS), 2 mM glutamine, 100 U/mL penicillin and 100 μg/mL streptomycin at 37° C. in a humidified 5% CO2 atmosphere. HeLa and 293T cells were maintained in Dulbecco's modified Eagle's medium (DMEM) supplemented with 5% (vol/vol) FBS, 2 mM glutamine, 100 U/mL penicillin and 100 μg/mL streptomycin. Molecular clones used in this study were WT pNL4-3 and the derivative encoding a Val-to-Ala mutation at SP1 residue 7, referred to as SP1-V7A. The MT-4 T-cell line was transfected the DEAE/dextran procedure; HeLa and 293T cells were transfected with linear polyethylenimine (L-PEI) or Lipofectamine 2000 (Invitrogen) as recommended by the supplier.
(§3) Antiviral assays. To produce HIV-1 stocks, 293T cells were transfected with WT pNL4-3 or the SP1-V7A derivative and culture supernatants were collected 24 h post transfection. RT-normalized virus supernatants were used to infect MT-4 cells at room temperature for 30 min. Cells were then cultured in the presence of serial dilutions of compounds. […] The IC50s in primary peripheral blood mononuclear cells (PBMCs) were calculated with a multi-clade panel of HIV-1 isolates by Southern Research Institute (Frederick, Md.). […]

[3] = Cytotoxicity assay CellTiter-Blue, HeLa; format: cell-based; settings: human; HeLa cells, 4 to 8 days; mean ± SEM, three experiments
Method: as §1

[4] = test system: pNL4-3 SP1-V7A in MT-4 cells; assay: Antiviral assay in MT-4 cells (RT readout), SP1-V7A; format: cell-based, HIV-1; settings: Human immunodeficiency virus 1, MT4, 96 h, read-out: Antiviral Assay IC50 (nM) SP1 V7A
Method: as §2, §3

[5] = test system: pNL4-3 SP1-V7A; assay: CA-SP1 accumulation assay, SP1-V7A derivative; format: cell-based, HIV-1; settings: 100 nM compound, HeLa or 293T cells
Outline: (§4)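 HeLa or 293T cells transfected with proviral clone, maturation inhibitors present through transfection and labeling; at 24 h, [^35S]Met/Cys labeling 2-3 h. Virions pelleted by ultracentrifugation, lysed, CA and CA-SP1 resolved by SDS-PAGE and quantified by phosphorimaging.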

[6] = test system: WT pNL4-3; assay: CA-SP1 accumulation assay, WT NL4-3; format: cell-based, HIV-1; settings: 100 nM compound, HeLa or 293T cells
Outline: as §4

`C=C(C)[C@@H]1CC[C@]2(CCNC3CCN(CCOC)CC3)CC[C@]3(C)[C@H](CC[C@@H]4[C@@]5(C)CC[C@H](OC(=O)CC(C)(C)CC(=O)O)C(C)(C)[C@@H]5CC[C@]43C)[C@@H]12` [Compound 51g, (3β)-17-[2-[[1-(2-Methoxyethyl)piperadin-4-yl]amino]ethyl]-28-norlup-20(29)-en-3-ol, 3-(5-Hydrogen 3,3-Dimethylpentanedioate), Bis(trifluoroacetate) Salt] showed a CC50 [1] of 406 ± 48 nM, an IC50 [2] of 2 ± 0.5 nM and a CC50 [3] of 551 ± 83 nM. For the same compound, the IC50 [4] was 19 ± 6 nM, the “% CA-SP1 Accumulation 100 nM SP1 V7A” value [5] was 46.5 (3) % and the “% CA-SP1 Accumulation 100 nM NL4-3” value [6] was 85.0 (2) %.
